Results as given in patent US8258114B2, “Modulation of glucose-6-phosphatase translocase expression” (Isis Pharmaceuticals, Inc., priority 2004, dated 2012).
Oligonucleotides are written 5' to 3', each unit as a sugar letter and its base; * is a phosphorothioate linkage, no mark a phosphodiester; rarer units and linkages stand in square brackets, end groups in braces. Plain capitals give the bases only. e = 2'-O-(2-methoxyethyl) (MOE); [5mC] = 5-methylcytosine; d = 2'-deoxy (DNA)

tested on: human glucose-6-phosphatase translocase mRNA; assay: Antisense inhibition of human glucose-6-phosphatase translocase mRNA in HepG2 cells (Table 11); type: cell-based; parameters: concentration or dose not given beside the values; details: LIPOFECTIN, mRNA by real-time PCR
Experimental: The human hepatoblastoma cell line HepG2 was obtained from the American Type Culture Collection (Manassas, Va.). HepG2 cells were routinely cultured in Eagle's MEM supplemented with 10% fetal bovine serum, 1 mM non-essential amino acids, and 1 mM sodium pyruvate (Invitrogen Life Technologies, Carlsbad, Calif.). Cells were routinely passaged by trypsinization and dilution when they reached approximately 90% confluence. Multiwell culture plates are prepared for cell culture by coating with a 1:100 dilution of type 1 rat tail collagen (BD Biosciences, Bedford, Mass.) in phosphate-buffered saline. The collagen-containing plates were incubated at 37° C. for approximately 1 hour, after which the collagen was removed and the wells were washed twice with phosphate-buffered saline. Cells were seeded into 96-well plates (Falcon-Primaria #353872, BD Biosciences, Bedford, Mass.) at a density of approximately 8,000 cells/well for use in oligomeric compound transfection experiments.
When cells reached 65-75% confluency, they were treated with oligonucleotide. Oligonucleotide was mixed with LIPOFECTIN™ Invitrogen Life Technologies, Carlsbad, Calif.) in Opti-MEM™-1 reduced serum medium (Invitrogen Life Technologies, Carlsbad, Calif.) to achieve the desired concentration of oligonucleotide and a LIPOFECTIN™ concentration of 2.5 or 3 μg/mL per 100 nM oligonucleotide. This transfection mixture was incubated at room temperature for approximately 0.5 hours. For cells grown in 96-well plates, wells were washed once with 100 μL OPTI-MEM™-1 and then treated with 130 μL of the transfection mixture. Cells grown in 24-well plates or other standard tissue culture plates are treated similarly, using appropriate volumes of medium and oligonucleotide. Cells are treated and data are obtained in duplicate or triplicate. After approximately 4-7 hours of treatment at 37° C., the medium containing the transfection mixture was replaced with fresh culture medium. Cells were harvested 16-24 hours after oligonucleotide treatment.
(§1) Quantitation of glucose 6-phosphatase translocase mRNA levels was accomplished by real-time quantitative PCR using the ABI PRISM™ 7600, 7700, or 7900 Sequence Detection System (PE-Applied Biosystems, Foster City, Calif.) according to manufacturer's instructions.
(§2) Prior to quantitative PCR analysis, primer-probe sets specific to the target gene being measured were evaluated for their ability to be “multiplexed” with a GAPDH amplification reaction. After isolation the RNA is subjected to sequential reverse transcriptase (RT) reaction and real-time PCR, both of which are performed in the same well. RT and PCR reagents were obtained from Invitrogen Life Technologies (Carlsbad, Calif.). […] The RT reaction was carried out by incubation for 30 minutes at 48° C. Following a 10 minute incubation at 95° C. to activate the PLATINUM® Taq, 40 cycles of a two-step PCR protocol were carried out: 95° C. for 15 seconds (denaturation) followed by 60° C. for 1.5 minutes (annealing/extension).
(§3) Gene target quantities obtained by RT, real-time PCR were normalized using either the expression level of GAPDH, a gene whose expression is constant, or by quantifying total RNA using RiboGreen™ (Molecular Probes, Inc. Eugene, Oreg.). GAPDH expression was quantified by RT, real-time PCR, by being run simultaneously with the target, multiplexing, or separately. Total RNA was quantified using RiboGreen™ RNA quantification reagent (Molecular Probes, Inc. Eugene, Oreg.).
A series of oligomeric compounds was designed to target different regions of human glucose-6-phosphatase translocase, using published sequences cited in Table 1. All compounds in Table 4 are chimeric oligonucleotides (“gapmers”) 20 nucleotides in length, composed of a central “gap” region consisting of 10 2′-deoxynucleotides, which is flanked on both sides (5′ and 3′) by five-nucleotide “wings”. The wings are composed of 2′-O-(2-methoxyethyl) nucleotides, also known as 2′-MOE nucleotides. […]

| Sequence | % Inhib [%] |
| --- | --- |
| ACAACCACACACAGTGCCCC (eA*e[5mC]*eA*eA*e[5mC]*d[5mC]*dA*d[5mC]*dA*d[5mC]*dA*d[5mC]*dA*dG*dT*eG*e[5mC]*e[5mC]*e[5mC]*e[5mC]; antisense) [ISIS 359519] | 53 |
| ACAGCTCCCAATACCAGGAT (eA*e[5mC]*eA*eG*e[5mC]*dT*d[5mC]*d[5mC]*d[5mC]*dA*dA*dT*dA*d[5mC]*d[5mC]*eA*eG*eG*eA*eT; antisense) [ISIS 359537] | 93 |
| ACATCAGCAGGTTCATTGTG (eA*e[5mC]*eA*eT*e[5mC]*dA*dG*d[5mC]*dA*dG*dG*dT*dT*d[5mC]*dA*eT*eT*eG*eT*eG; antisense) [ISIS 359523] | 43 |
| ACCAAGTGCCAAACTGAGAT (eA*e[5mC]*e[5mC]*eA*eA*dG*dT*dG*d[5mC]*d[5mC]*dA*dA*dA*d[5mC]*dT*eG*eA*eG*eA*eT; antisense) [ISIS 359509] | 24 |
| ACTCGGCCCATCTTGGTGCG (eA*e[5mC]*eT*e[5mC]*eG*dG*d[5mC]*d[5mC]*d[5mC]*dA*dT*d[5mC]*dT*dT*dG*eG*eT*eG*e[5mC]*eG; antisense) [ISIS 359548] | 96 |
| AGAGGAAGGAGACAACCACA (eA*eG*eA*eG*eG*dA*dA*dG*dG*dA*dG*dA*d[5mC]*dA*dA*e[5mC]*e[5mC]*eA*e[5mC]*eA; antisense) [ISIS 359521] | 32 |
| AGCAGGTTCATTGTGGATGA (eA*eG*e[5mC]*eA*eG*dG*dT*dT*d[5mC]*dA*dT*dT*dG*dT*dG*eG*eA*eT*eG*eA; antisense) [ISIS 359522] | 91 |
| AGCCAGGTTCATGCTGGTTG (eA*eG*e[5mC]*e[5mC]*eA*dG*dG*dT*dT*d[5mC]*dA*dT*dG*d[5mC]*dT*eG*eG*eT*eT*eG; antisense) [ISIS 359513] | 62 |
| ATGGCCCACCAAGTGCCAAA (eA*eT*eG*eG*e[5mC]*d[5mC]*d[5mC]*dA*d[5mC]*d[5mC]*dA*dA*dG*dT*dG*e[5mC]*e[5mC]*eA*eA*eA; antisense) [ISIS 359510] | 38 |
| CAAATACAGCTCCCAATACC (e[5mC]*eA*eA*eA*eT*dA*d[5mC]*dA*dG*d[5mC]*dT*d[5mC]*d[5mC]*d[5mC]*dA*eA*eT*eA*e[5mC]*e[5mC]; antisense) [ISIS 359538] | 29 |
| CAAGGAGCCCTTCTTGCCCT (e[5mC]*eA*eA*eG*eG*dA*dG*d[5mC]*d[5mC]*d[5mC]*dT*dT*d[5mC]*dT*dT*eG*e[5mC]*e[5mC]*e[5mC]*eT; antisense) [ISIS 359524] | 56 |
| CAGGCCAACCAGGAGCAGCC (e[5mC]*eA*eG*eG*e[5mC]*d[5mC]*dA*dA*d[5mC]*d[5mC]*dA*dG*dG*dA*dG*e[5mC]*eA*eG*e[5mC]*e[5mC]; antisense) [ISIS 359508] | 68 |
| CATGCTGGTTGACAGGATGG (e[5mC]*eA*eT*eG*e[5mC]*dT*dG*dG*dT*dT*dG*dA*d[5mC]*dA*dG*eG*eA*eT*eG*eG; antisense) [ISIS 359512] | 43 |
| CCAACCAGGAGCAGCCCAGA (e[5mC]*e[5mC]*eA*eA*e[5mC]*d[5mC]*dA*dG*dG*dA*dG*d[5mC]*dA*dG*d[5mC]*e[5mC]*e[5mC]*eA*eG*eA; antisense) [ISIS 359507] | 49 |
| CCAGCCCTCCAGCCAGGTTC (e[5mC]*e[5mC]*eA*eG*e[5mC]*d[5mC]*d[5mC]*dT*d[5mC]*d[5mC]*dA*dG*d[5mC]*d[5mC]*dA*eG*eG*eT*eT*e[5mC]; antisense) [ISIS 359516] | 69 |
| CCAGCGTGCTGCGCCAGCTG (e[5mC]*e[5mC]*eA*eG*e[5mC]*dG*dT*dG*d[5mC]*dT*dG*d[5mC]*dG*d[5mC]*d[5mC]*eA*eG*e[5mC]*eT*eG; antisense) [ISIS 359518] | 47 |

tested on: mouse glucose-6-phosphatase translocase mRNA; assay: Antisense inhibition of mouse glucose-6-phosphatase translocase mRNA in primary mouse hepatocytes, 50 nM (Table 5); type: cell-based; details: 50 nM oligonucleotide, mRNA by real-time PCR, normalized with RIBOGREEN
Experimental: Primary mouse hepatocytes were prepared from CD-1 mice purchased from Charles River Labs. Primary mouse hepatocytes were routinely cultured in Hepatocyte Attachment Media supplemented with 10% fetal bovine serum (Invitrogen Life Technologies, Carlsbad, Calif.), 250 nM dexamethasone, and 10 nM bovine insulin (Sigma-Aldrich, St. Louis, Mo.). Cells were seeded into 96-well plates (Falcon-Primaria #353872, BD Biosciences, Bedford, Mass.) at a density of approximately 4,000-6,000 cells/well for use in oligomeric compound transfection experiments.
as §1, §2, §3
A series of oligomeric compounds was designed to target different regions of mouse glucose-6-phosphatase translocase, using published sequences cited in Table 1. All compounds in Table 5 are chimeric oligonucleotides (“gapmers”) 20 nucleotides in length, composed of a central “gap” region consisting of 10 2′-deoxynucleotides, which is flanked on both sides (5′ and 3′) by five-nucleotide “wings”. The wings are composed of 2′-O-(2-methoxyethyl) nucleotides, also known as 2′-MOE nucleotides. The internucleoside (backbone) linkages are phosphorothioate throughout the oligonucleotide. All cytidine residues are 5-methylcytidines. The compounds were analyzed for their effect on gene target mRNA levels by quantitative real-time PCR as described in other examples herein, using the following primer-probe set designed to hybridize to mouse glucose-6-phosphatase translocase: • forward primer: […] (SEQ ID NO: 66) • reverse primer: CCATCCCAGCCATCATGAG (SEQ ID NO: 67) and the PCR probe was: FAM-[…]-TAMRA (SEQ ID NO: 68) where FAM is the fluorescent reporter dye and TAMRA is the quencher dye. Mouse target gene quantities were normalized by quantifying total RNA using RIBOGREEN™.
Data are from experiments in which primary mouse hepatocytes were treated with 50 nM of the antisense oligonucleotides of the present invention. A reduction in expression is expressed as percent inhibition in Table 5. If present, “N.D.” indicates “not determined”. The target regions to which these oligomeric compounds are inhibitory are herein referred to as “validated target segments.”

| Sequence | % Inhib [%] |
| --- | --- |
| TGCCTGGATCTGCTGAGCTG (eT*eG*e[5mC]*e[5mC]*eT*dG*dG*dA*dT*d[5mC]*dT*dG*d[5mC]*dT*dG*eA*eG*e[5mC]*eT*eG; antisense) [ISIS 148936] | 39 |
| TGTGCTCCAGCTATAGTGCT (eT*eG*eT*eG*e[5mC]*dT*d[5mC]*d[5mC]*dA*dG*d[5mC]*dT*dA*dT*dA*eG*eT*eG*e[5mC]*eT; antisense) [ISIS 148981] | 59 |
